Columns and labels:
Type in all cases: cell-based, human
HepG2 cells = assay: Cell growth under high-density conditions (SRB assay), delayed cell death (DCD); settings: Homo sapiens, high density HepG2 cultures
Hep G2 cells = assay: Nicotinamide Reversibility Assay / cell growth inhibition of Hep G2 cells (SRB, six days); settings: for IC50: Homo sapiens, HepG2, 144 h, six days of compound incubation, SRB, read-out: Cell growth inhibition IC50-values [μM] Hep G2
Procedure: Nicotinamide Reversibility Assay
Hep G2 cells derived from a human liver carcinoma were plated at a density of 20,000 cells/ml in 12-well plastic dishes. Cultivation occurred in Richters IMEM-ZO nutrient medium with 5% fetal calf serum (FCS) in a tissue culture incubator with a gas mixture of 5% CO2 and 95% air at a temperature of 37° C. One day after plating, the culture medium was aspirated from the cells and replaced by fresh medium which contained the respective concentrations of the test compounds and where applicable of the nicotinamide. For the individual concentrations and the controls without test compounds, three-fold batches were done for each. Three days after the beginning of treatment, the medium was again renewed with the test compounds and where applicable the nicotinamide. After six days of compound incubation, the test was ended and the protein amount in the individual wells was determined with the sulforhodamin-B-method (according. to P. Skehan et al.: New Colorimetric Cytotoxicity Assay for Anticancer-Drug Screening. J. Natl. Cancer Inst. 82: 1107-1112, 1990). The IC50-values were taken from the dose-response curves and given as a comparative measurement for the activity of the test compounds.

[1] = tested on: NAD(P) synthesis from niacinamide in HepG2 cells; assay: Determination of NAD(P) synthesis from [14C]niacinamide in HepG2 cells; settings: for inhibition at 10 µM / activity at 10 µM: Homo sapiens; for inhibition at 10 µM: read-out: Cellular NAD synthesis inhibition [%]; for activity at 10 µM / NAD(P) pmol/10^6 cells / NAD(P) pmol/mg protein: Table 3a, compound 10^-5 M; for activity at 10 µM: read-out: NAD(P) % of Control; for NAD(P) pmol/10^6 cells: 17 hrs pre-incubation, control 302.1; for NAD(P) pmol/mg protein: control 186.4
Source text: The effect of the compounds on the synthesis of NAD(P) starting from niacinamide was investigated using for example the tumor cell line HepG2 according to the technique described in the experimental part below.
The inhibition of the NAD(P) synthesis from niacinamide by these compounds was investigated in HepG2 cells as described in the section “Material and Methods”. The compounds of Table 3 a were used at a concentration of 10^−5 M. The compounds of Table 3 b were used at concentrations of at least 10^−5 M, except for Doxorubicin where the concentration was 0.3×10^−5 M. As a control, vehicle treated or untreated cells were used.
In these experiments, a pre-incubation period of 17 hrs with the compounds was used, but it turned out that the pre-incubations period could be shortened, for example to 2 hrs, or skipped completely without affecting the inhibition profile. […] Similar results were obtained with the other specific compounds.
For the detection of specific inhibitors of niacinamide mononucleotide formation the following screening assay is especially useful which comprises the following steps: incubating cultured cells selected from HepG2 cells, U-87 MG cells, MCF-7 M1 cells, Caki-1 cells, HL-60 cells, PC3 cells, U-373 MG cells, A549 cells and KG-1a cells in the presence of [^14C]niacinamide and a compound to be tested for its activity to inhibit the cellular formation of niacinamide mononucleotide; effecting lysis of the cells; isolating and separating the [^14C]-labeled compounds and measuring the amount of formed labeled niacinamide mononucleotide, NAD and NADP. More concretely, cultured cells are seeded in a defined density in culture dishes, followed by incubation in the presence of a test compound and by the addition of [^14C]niacinamide for about 0.1 to 6 hrs. The cells are then lysed with perchloric acid and the resulting extract is neutralized. Finally, the [^14C]-labeled compounds are separated by thin-layer chromatography on cellulose matrices followed by UV detection and autoradiography. Non-radioactive niacinamide derivatives are used as standards. This assay allows simple and effective screening and selection of the compounds according to the invention.
Determination of NAD(P) Synthesis from [^14C]Niacinamide
The cells were detached from 75 cm^2 flasks by removing the growth medium and adding 3 ml trypsin/EDTA solution to each flask. After about 5 minutes incubation at 37° C., when the cells were detached from the surface of the dishes, trypsinization was stopped by adding 3 ml Richter's IMEM-ZO medium containing 10% FCS. The cells were suspended by repeated pipetting. For predilution, an aliquot of 20 μl was added to 10 ml Casyton isotonic solution (No. 043-90037P, Schärfe System, Reutlingen, Germany) using a Sysmex Auto Dilutor Type AD-260 (Toa, Medical Electronics Co. Ltd., Kobe, Japan). The cell number was determined by electronic cell volume measurements and counting with a CASY 1 Cell Counter+Analyzer System, Model TTC (Schärfe System, Reutlingen, Germany) equipped with a 60 μm capillary. Following dilution in IMEM-ZO containing 10% FCS, the cells were finally seeded at a density of 4×10^6/10 ml per sample in Ø 10 cm tissue culture dishes (Greiner, Frickenhausen, Germany) and incubated at 37° C. in a humidified atmosphere of 5% CO2 in air.
After one day, when the cells were adherent to the dishes, the cultures were replenished with IMEM-ZO containing 5% FCS plus the test compound or the vehicle. […] The cells were then incubated at 37° C. for 17 hours in a humidified atmosphere of 5% CO2 in air. This preincubation period is not necessary to achieve a distinct inhibitory action of the compounds and can be shortened for example to 2 or 0 hours. After this period of time, the medium was again discarded and 4 ml HEPES-buffered IMEM-ZO containing the test compound or the vehicle and 0.5 μCi/ml [^14C]niacinamide were added to each culture for an additional 5 hours at 37° C. and 100% humidity. […]

[2] = minimum concentration which, despite initial growth, induced cell death below the number of initially seeded cells, Table 2

Row | Compound | minimal effective concentration (HepG2 cells; Table 5) [µM] | minimal effective concentration (HepG2 cells; [2]) [µM] | IC50 (Hep G2 cells; Hep G2) [µM] | inhibition at 10 µM [1] [%] | activity at 10 µM [1] [%] | NAD(P) pmol/10^6 cells [1] [pmol/10^6 cells] | NAD(P) pmol/mg protein [1] [pmol/mg protein] | Influence of the addition of nicotinamide on the action on cell growth (FIGS. 20 to 27) (Hep G2 cells; Hep G2) | Reversal by Niacinamide (Hep G2 cells; Hep G2 cell growth inhibition with added nicotinamide)
1 | Cn1c(CCNC(=O)/C=C/c2cccnc2)ccc1CN1CCN(C(c2ccccc2)c2ccccc2)CC1 [Compound K22350, N-{2-[5-(4-benzhydryl-piperazine-1-yl-methyl)-1-methyl-1H-pyrrole-2-yl]-ethyl}-3-pyridine-3-yl-acrylamide] | 1 | 1 | 0.7 | 99 | 0.9 | 2.7 | 1.7 | – | –
2 | O=C(NCCCCC1CCN(S(=O)(=O)c2ccc3ccccc3c2)CC1)Nc1cccnc1 [Compound K22365, 1-{4-[1-(naphthalene-2-sulfonyl)-piperidine-4-yl)-butyl}-3-pyridine-3-yl-urea] | 3 | 3 | 0.6 | 92 | – | – | – | – | –
3 | O=C(NCCCCC1CCN(C(=O)N2c3ccccc3CCc3ccccc32)CC1)Nc1cccnc1 [Compound K22387, 1-{4-[1-(1,11-dihydro-dibenzene[b,f]azepine-5-carbonyl)-piperidine-4-yl]-butyl}-3-pyridine-3-yl-urea] | 0.01 | 0.01 | 0.002 | 99 | 0.9 | 2.6 | 1.6 | can be antagonized | yes
4 | NC(Cc1ccc(O)c(N=Nc2ccccc2C(=O)N2CCC(CCCCNC(=O)/C=C/c3cccnc3)CC2)c1)C(=O)O (stereo not drawn) [Compound K22408, 2-amino-3-[4-hydroxy-3-(2-{4-[4-(3-pyridine-3-yl-acryloyl-amino)-butyl]-piperidine-1-carbonyl}-phenylazo)-phenyl]-propanoic acid trihydrate] | 1 | 1 | 0.2 | 98 | 1.6 | 4.9 | 3.0 | – | –

— US20020160968A1, “Inhibitors of cellular niacinamide mononucleotide formation and their use in cancer therapy” (Klinge Pharma GmbH, priority 1999, published 2002)
